In article PMC11005723, “Development of Complementary Photo‐arginine/lysine to Promote Discovery of Arg/Lys hPTMs Interactomes” (Advanced Science, 2024):
Non-standard residues stand in square brackets, D forms with d. No end group written: not given here. *: point of attachment. Biotin = O=C1N[C@H]2[C@H](CS[C@H]2CCCCC(=O)*)N1; R(dz) = photo-arginine

System: HEK293T nuclear lysates
Assay: SILAC‐based pull‐down proteomics H4K5acK8ac/H4K5 (probes 8/5)
Type: binding, human
Settings: for B6 log2 (H4K5ac8ac/H4K5): replicate B6; for A6 log2 (H4K5ac8ac/H4K5): replicate A6
[1] = protein YWHAB, Bos taurus (CON_00829553.1)

probe 8: H4K5acK8ac peptide probe with photo‐arginine R(dz) and K(biotin) (SG[R(dz)]GK(Ac)GGK(Ac)GLGKGGK(Biotin))
B6 log2 (H4K5ac8ac/H4K5) (protein MYH9 (P35579)): -0.04782 | A6 log2 (H4K5ac8ac/H4K5) (protein NAA10 (P41227)): -0.3046 | B6 log2 (H4K5ac8ac/H4K5) (protein NAA10 (P41227)): 0.05206 | A6 log2 (H4K5ac8ac/H4K5) (protein NACC1 (Q96RE7)): 0.2811 | B6 log2 (H4K5ac8ac/H4K5) (protein NACC1 (Q96RE7)): 0.03418 | A6 log2 (H4K5ac8ac/H4K5) (protein NFXL1 (Q6ZNB6)): 0.2111 | B6 log2 (H4K5ac8ac/H4K5) (protein NFXL1 (Q6ZNB6)): 0.02469 | A6 log2 (H4K5ac8ac/H4K5) (protein NOL9 (Q5SY16)): -0.2567 | B6 log2 (H4K5ac8ac/H4K5) (protein NOL9 (Q5SY16)): -0.02031 | A6 log2 (H4K5ac8ac/H4K5) (protein PA2G4 (Q9UQ80)): 0.1563 | B6 log2 (H4K5ac8ac/H4K5) (protein PA2G4 (Q9UQ80)): 0.03904 | A6 log2 (H4K5ac8ac/H4K5) (protein PACSIN2 (Q9UNF0)): 0 | B6 log2 (H4K5ac8ac/H4K5) (protein PACSIN2 (Q9UNF0)): -0.04928 | A6 log2 (H4K5ac8ac/H4K5) (protein PBX1 (A0A087X0P4)): 0.6964 | B6 log2 (H4K5ac8ac/H4K5) (protein PBX1 (A0A087X0P4)): 0.06283 | A6 log2 (H4K5ac8ac/H4K5) (protein POLR1A (B9ZVN9)): 0.06415 | B6 log2 (H4K5ac8ac/H4K5) (protein POLR1A (B9ZVN9)): -0.04145 | A6 log2 (H4K5ac8ac/H4K5) (protein PPA1 (Q15181)): 0.1577 | B6 log2 (H4K5ac8ac/H4K5) (protein PPA1 (Q15181)): 0.07333 | A6 log2 (H4K5ac8ac/H4K5) (protein PPP1CB (P62140)): -0.299 | B6 log2 (H4K5ac8ac/H4K5) (protein PPP1CB (P62140)): -0.01665 | A6 log2 (H4K5ac8ac/H4K5) (protein PPWD1 (F5H7P7)): -0.2794 | B6 log2 (H4K5ac8ac/H4K5) (protein PPWD1 (F5H7P7)): -0.02682 | A6 log2 (H4K5ac8ac/H4K5) (protein PRPF4 (O43172)): -0.3068 | B6 log2 (H4K5ac8ac/H4K5) (protein PRPF4 (O43172)): -0.007391 | A6 log2 (H4K5ac8ac/H4K5) (protein PRPF19 (Q9UMS4)): -0.3378 | B6 log2 (H4K5ac8ac/H4K5) (protein PRPF19 (Q9UMS4)): 0.03114 | A6 log2 (H4K5ac8ac/H4K5) (protein RAB18 (Q9NP72)): -0.7664 | B6 log2 (H4K5ac8ac/H4K5) (protein RAB18 (Q9NP72)): 0.06785 | A6 log2 (H4K5ac8ac/H4K5) (protein RBBP4 (Q09028)): -0.301 | B6 log2 (H4K5ac8ac/H4K5) (protein RBBP4 (Q09028)): -0.04139 | A6 log2 (H4K5ac8ac/H4K5) (protein RBBP5 (Q15291)): 0.327 | B6 log2 (H4K5ac8ac/H4K5) (protein RBBP5 (Q15291)): 0.03881 | A6 log2 (H4K5ac8ac/H4K5) (protein RBM17 (Q5W011)): -0.1033 | B6 log2 (H4K5ac8ac/H4K5) (protein RBM17 (Q5W011)): -0.0008232 | A6 log2 (H4K5ac8ac/H4K5) (protein RFC4 (C9JTT7)): -0.05533 | B6 log2 (H4K5ac8ac/H4K5) (protein RFC4 (C9JTT7)): 0.05642 | A6 log2 (H4K5ac8ac/H4K5) (protein RIF1 (Q5UIP0)): 0.1175 | B6 log2 (H4K5ac8ac/H4K5) (protein RIF1 (Q5UIP0)): 0.06957 | A6 log2 (H4K5ac8ac/H4K5) (protein RLTPR (Q6F5E8)): 0.7852 | B6 log2 (H4K5ac8ac/H4K5) (protein RLTPR (Q6F5E8)): 0.007574 | A6 log2 (H4K5ac8ac/H4K5) (protein RNF113A (O15541)): -0.4653 | B6 log2 (H4K5ac8ac/H4K5) (protein RNF113A (O15541)): 0.03846 | A6 log2 (H4K5ac8ac/H4K5) (protein RPL18A (M0R3D6)): -0.4315 | B6 log2 (H4K5ac8ac/H4K5) (protein RPL18A (M0R3D6)): -0.04492 | A6 log2 (H4K5ac8ac/H4K5) (protein RPL23 (P62829)): -0.1756 | B6 log2 (H4K5ac8ac/H4K5) (protein RPL23 (P62829)): 0.05216 | A6 log2 (H4K5ac8ac/H4K5) (protein SART1 (O43290)): -0.3683 | B6 log2 (H4K5ac8ac/H4K5) (protein SART1 (O43290)): 0.001654 | A6 log2 (H4K5ac8ac/H4K5) (protein SEPT9 (Q9UHD8)): 0.1535 | B6 log2 (H4K5ac8ac/H4K5) (protein SEPT9 (Q9UHD8)): -0.026 | A6 log2 (H4K5ac8ac/H4K5) (protein SKP1 (E5RJR5)): -0.01806 | B6 log2 (H4K5ac8ac/H4K5) (protein SKP1 (E5RJR5)): 0.0159 | A6 log2 (H4K5ac8ac/H4K5) (protein SMARCC1 (Q92922)): -0.08326 | B6 log2 (H4K5ac8ac/H4K5) (protein SMARCC1 (Q92922)): 0.04543 | A6 log2 (H4K5ac8ac/H4K5) (protein SMC4 (E9PD53)): -0.08362 | B6 log2 (H4K5ac8ac/H4K5) (protein SMC4 (E9PD53)): 0.02245 | A6 log2 (H4K5ac8ac/H4K5) (protein SRP9 (P49458)): -0.01043 | B6 log2 (H4K5ac8ac/H4K5) (protein SRP9 (P49458)): 0.03654 | A6 log2 (H4K5ac8ac/H4K5) (protein SRPRB (H7C4H2)): 0.3686 | B6 log2 (H4K5ac8ac/H4K5) (protein SRPRB (H7C4H2)): 0.07795 | A6 log2 (H4K5ac8ac/H4K5) (protein STRAP (Q9Y3F4)): 0.01226 | B6 log2 (H4K5ac8ac/H4K5) (protein STRAP (Q9Y3F4)): 0.01225 | A6 log2 (H4K5ac8ac/H4K5) (protein STUB1 (Q9UNE7)): 0.5197 | B6 log2 (H4K5ac8ac/H4K5) (protein STUB1 (Q9UNE7)): 0.03834 | A6 log2 (H4K5ac8ac/H4K5) (protein SUGP2 (M0R3F6)): -0.3599 | B6 log2 (H4K5ac8ac/H4K5) (protein SUGP2 (M0R3F6)): 0.02065 | A6 log2 (H4K5ac8ac/H4K5) (protein SYMPK (Q92797)): -0.08997 | B6 log2 (H4K5ac8ac/H4K5) (protein SYMPK (Q92797)): -0.0308 | A6 log2 (H4K5ac8ac/H4K5) (protein TBC1D4 (O60343)): 0.1383 | B6 log2 (H4K5ac8ac/H4K5) (protein TBC1D4 (O60343)): -0.03399 | A6 log2 (H4K5ac8ac/H4K5) (protein TBL3 (Q12788)): -0.1597 | B6 log2 (H4K5ac8ac/H4K5) (protein TBL3 (Q12788)): -0.02533 | A6 log2 (H4K5ac8ac/H4K5) (protein TKT (P29401)): -0.1341 | B6 log2 (H4K5ac8ac/H4K5) (protein TKT (P29401)): 0.0497 | A6 log2 (H4K5ac8ac/H4K5) (protein TMPO (P42167)): 0.4117 | B6 log2 (H4K5ac8ac/H4K5) (protein TMPO (P42167)): 0.03759 | A6 log2 (H4K5ac8ac/H4K5) (protein TTLL12 (Q14166)): 0.2441 | B6 log2 (H4K5ac8ac/H4K5) (protein TTLL12 (Q14166)): 0.0292 | A6 log2 (H4K5ac8ac/H4K5) (protein TXLNG (Q9NUQ3)): 0.4545 | B6 log2 (H4K5ac8ac/H4K5) (protein TXLNG (Q9NUQ3)): -0.0116 | A6 log2 (H4K5ac8ac/H4K5) (protein UHRF1 (Q96T88)): -0.6652 | B6 log2 (H4K5ac8ac/H4K5) (protein UHRF1 (Q96T88)): 0.04746 | A6 log2 (H4K5ac8ac/H4K5) (protein UHRF2 (Q96PU4)): -0.006334 | B6 log2 (H4K5ac8ac/H4K5) (protein UHRF2 (Q96PU4)): 0.0767 | A6 log2 (H4K5ac8ac/H4K5) (protein UPF1 (Q92900)): -0.46 | B6 log2 (H4K5ac8ac/H4K5) (protein UPF1 (Q92900)): -0.01045 | A6 log2 (H4K5ac8ac/H4K5) (protein VAPB (O95292)): -0.312 | B6 log2 (H4K5ac8ac/H4K5) (protein VAPB (O95292)): 0.06269 | A6 log2 (H4K5ac8ac/H4K5) (protein WAPAL (Q7Z5K2)): 0.1532 | B6 log2 (H4K5ac8ac/H4K5) (protein WAPAL (Q7Z5K2)): -0.009146 | A6 log2 (H4K5ac8ac/H4K5) (protein XRCC5 (P13010)): -0.05414 | B6 log2 (H4K5ac8ac/H4K5) (protein XRCC5 (P13010)): -0.03221 | A6 log2 (H4K5ac8ac/H4K5) [1]: -0.1065 | B6 log2 (H4K5ac8ac/H4K5) [1]: 0.02961 | A6 log2 (H4K5ac8ac/H4K5) (protein ZNF330 (Q9Y3S2)): 0.1967 | B6 log2 (H4K5ac8ac/H4K5) (protein ZNF330 (Q9Y3S2)): -0.03674 | A6 log2 (H4K5ac8ac/H4K5) (protein ZNF579 (Q8NAF0)): -0.0908 | B6 log2 (H4K5ac8ac/H4K5) (protein ZNF579 (Q8NAF0)): 0.0364 | A6 log2 (H4K5ac8ac/H4K5) (protein ZZZ3 (Q8IYH5)): -0.06959 | B6 log2 (H4K5ac8ac/H4K5) (protein ZZZ3 (Q8IYH5)): -0.004188
